{"source": "patent US11077127B2", "about": "“Adjuvant containing baicalin, particularly from a Scutellaria baicalensis extract, and animal feed containing such an adjuvant” (DELTAVIT, priority 2014, dated 2021)", "key": {"[1]": {"test_system": "Isabrown laying hens", "assay": "Test 3: feed intake and egg laying of laying hens subject to thermal stress", "assay_type": "in vivo, hen", "method": "Test 3: Study of the Effect of the Administration of a Feed Comprising the Adjuvant with the Scutellaria baicalensis Extract on a Solid Vehicle on the Feed Intake of Laying Hens Subject to Thermal Stress 72 Isabrown laying hens thirty weeks old at the beginning of the test were divided into three groups of twelve cages each containing two hens. The test was carried out until the hens were 38 weeks old. Group 1 received the control feed. Group 2, also called the OTC group, received the control feed supplemented with an antibiotic, 400 ppm of oxytetracycline. Group 3, also called the SCU group, received the control feed supplemented with an extract from the root of Scutellaria baicalensis providing 6 mg of baicalin/kg of feed. After three weeks of distribution of the experimental feed, the hens were subject to a variation in temperature. The temperature of the environment increased from 22° C. (thermal comfort) to 35° C. for 5 days. Food intake, number of eggs laid and average weight of the eggs were recorded every week and every day during the week of the high temperature as well as during the following week. The test was divided into three phases: pre-heat increase phase, thermal stress phase and post-high temperature stress phase."}, "[2]": {"test_system": "piglets", "assay": "Test 5: state of health and resistance to disease of piglets subject to a stress", "assay_type": "in vivo, pig", "settings": "100 ppm in the feed", "excerpt": "Test 5: Study of the Effect of the Administration of a Feed Comprising the Adjuvant with the Extract of Scutellaria baicalensis on a Solid Vehicle on the Improvement in the State of Health and Resistance to Disease of Piglets Subject to a Stress\nThe piglets were 42 days old at the beginning of the test. Three groups were formed: a control group, a group receiving the same feed supplemented with 100 ppm of an antibiotic (tylosine) and finally the last group receiving a feed supplemented with 100 ppm of an extract of Scutellaria baicalensis, that is 30 ppm of baicalin per kg of feed. The diseases were noted as were the curative treatments used in each groups."}}, "data": [{"smiles": "CN(C)[C@@H]1C(O)=C(C(N)=O)C(=O)[C@@]2(O)C(O)=C3C(=O)c4c(O)cccc4[C@@](C)(O)[C@H]3[C@H](O)[C@@H]12", "note": "[OTC, oxytetracycline]", "values": [{"measurement": "egg-laying rate", "setting": "[1]; 2 weeks including the thermal stress phase and the following week, control 85.2%", "result": 88.5, "unit": "%"}, {"measurement": "daily feed intake per hen", "setting": "[1]; thermal stress phase (35° C. for 5 days), OTC 400 ppm in feed, SCU 6 mg baicalin/kg of feed, control 50.9 g", "result": 53.5, "unit": "g"}]}, {"smiles": "CC[C@H]1OC(=O)C[C@@H](O)[C@H](C)[C@@H](O[C@@H]2O[C@H](C)[C@@H](O[C@H]3C[C@@](C)(O)[C@@H](O)[C@H](C)O3)[C@H](N(C)C)[C@H]2O)[C@@H](CC=O)C[C@@H](C)C(=O)/C=C/C(C)=C/[C@@H]1CO[C@@H]1O[C@H](C)[C@@H](O)[C@@H](OC)[C@H]1OC", "note": "[Tylosine, tylosine]", "values": [{"measurement": "% Pigs not treated", "setting": "[2]", "result": 48, "unit": "%"}, {"measurement": "% Pigs treated", "setting": "[2]", "result": 52, "unit": "%"}, {"measurement": "% treatments", "setting": "[2]", "result": 56.0, "unit": "%"}, {"measurement": "Mortality + elimination (%)", "setting": "[2]", "result": 4.0, "unit": "%"}, {"measurement": "Number of treatments: Cough", "setting": "[2]", "result": 7}, {"measurement": "Number of treatments: Lame", "setting": "[2]", "result": 0}, {"measurement": "Number of treatments: Lean", "setting": "[2]", "result": 2}, {"measurement": "Number of treatments: Nervous symptoms", "setting": "[2]", "result": 1}, {"measurement": "Number of treatments: Watery diarrhoea", "setting": "[2]", "result": 4}, {"measurement": "Pigs treated per cause: Cough", "setting": "[2]", "result": 7}, {"measurement": "Pigs treated per cause: Lame", "setting": "[2]", "result": 0}, {"measurement": "Pigs treated per cause: Lean", "setting": "[2]", "result": 2}, {"measurement": "Pigs treated per cause: Nervous symptoms", "setting": "[2]", "result": 1}, {"measurement": "Pigs treated per cause: Watery diarrhoea", "setting": "[2]", "result": 4}, {"measurement": "Number of pigs treated", "setting": "[2]; P (Chi2) <0.05", "result": 13}, {"measurement": "Number of treatments", "setting": "[2]; curative treatments, P (Chi2) <0.05", "result": 14}, {"measurement": "Withdrawn from test", "setting": "[2]; number of pigs", "result": 1}, {"measurement": "Number of deaths", "setting": "[2]; piglets 42 days old at start", "result": 0}]}]}
